Columns and labels:
Format in all cases: in vivo
NMRI mouse = assay: Abdominal contractions induced by phenyl-p-benzoquinone (PBQ) in the NMRI mouse; conditions: IP, PBQ at t=30 min, cramps counted t=35-45 min
Description: Abdominal Contractions Induced by Phenyl-p-Benzoquinone (PBQ) in the NMRI Mouse
Intraperitoneal administration of an alcoholic solution of PBQ causes abdominal cramps in the mouse (SIEGNUND et al., Proc. Soc. Exp. Biol., 1957, 95, 729-731). The cramps are characterized by repeated contractions of the abdominal musculature, accompanied by extension of the hind limbs. Most analgesics antagonise these abdominal cramps (COLLIER et al., Brit. J. Pharmacol. Chem., 1968, 32, 295-310). At t=0 min., the animals are weight and the compound being studied is administered by the IP route. A group of contol animals is given the solvent used for the compound. At t=30 min., an alcoholic solution of PBQ (0.2%) is administered by the IP route in a volume of 0.25 ml/mouse. Immediately after administration of the PBQ, the animals are placed in cylinders of plexiglass (L=19.5 cm; I.D.=5 cm). From t=35 min. to t=45 min., the animals' reaction is observed and the experimenter notes the total number of abdominal cramps per animal. The Table hereinbelow gives the percentage inhibition of the number of abdominal cramps measured in the control animals, at the active dose of the compound studied.

Wistar rat [1] = assay: Social recognition in the Wistar rat; conditions: intraperitoneal route, dose 3 mg/kg, second encounter after 2 hours
Excerpt: Social Recognition in the Wistar Rat
Initially described in 1982 by THOR and HOLLOWAY, (J. Comp. Physiol., 1982, 96, 1000-1006), the social recognition test has subsequently been proposed by various authors (DANTZER et al., Psychopharmacology, 1987, 91, 363-368; PERIO et al., Psycho-pharmacology, 1989, 97, 262-268) for studying the mnemocognitive effects of new compounds. The test is based on the natural expression of the olfactory memory of the rat and its natural tendency to forget and allows evaluation of memorisation, by recognition of a young congeneric animal, by an adult rat. A young rat (21 days), taken at random, is placed for 5 minutes in the cage housing an adult rat. With the aid of a video device, the experimenter observes the social recognition behaviour of the adult rat and measures its overall duration. The young rat is then removed from the adult rat's cage and is placed in its own cage until the second introduction. The adult rat is given the compound under test by intraperitoneal route and, after 2 hours, is again brought into the presence (5 minutes) of the young rat. The social recognition behaviour is then observed again and its duration measured.
The Table hereinbelow gives the difference (T2—T1), expressed in seconds, between the “recognition” times of the 2 encounters.

Wistar rat [2] = assay: Object recognition in the Wistar rat; conditions: 30 minutes before each session, 24 hours between sessions
Excerpt: Object Recognition in the Wistar Rat
The object recognition test in the Wistar rat was initially developed by ENNACEUR and DELACOUR (Behav. Brain Res., 1988, 31, 47-59). The test is based on the spontaneous exploratory activity of the animal and has he characteristics of episodic memory in humans. This memory test is sensitive to ageing (SCALI et al., Eur. J. Pharmacol., 1997, 325, 173-180) and to cholinergic dysfunctions (BARTOLINI et al., Pharm. Biochem. Behav. 1996, 53(2), 277-283) and is based on the differences in the exploration of 2 objects of fairly similar shape—one familiar, the other new. Prior to the test, the animals are habituated to the environment (an enclosure without an object). In the course of a first session, the rats are placed (3 minutes) in the enclosure, in which there are 2 identical objects. The duration of exploration is measured for each object. In the course of the second session (3 minutes), 24 hours later, 1 of the 2 objects is replaced by a new object. The duration of exploration is measured for each object. The assessment criterion is the difference, Delta, expressed in seconds, between the exploration times for the new object and for the familiar object in the course of the second session.
The Table hereinbelow gives the difference, Delta, expressed in seconds, between the exploration times of the 2 objects.

Compound: CC1=CC(=O)CC(c2cccc(Cl)c2)N1 (racemic) [Example 1, (±)-2-(3-Chlorophenyl)-6-methyl-2,3-dihydro-4(1H)-pyridinone]
- Inhibition (%) of the number of abdominal cramps (NMRI mouse; dose 10 mg/kg): 51%
- T2 − T1 (s), difference between the recognition times of the 2 encounters (Wistar rat [1]): -36 s
- Delta (s), difference between exploration times for new and familiar object (Wistar rat [2]; dose 0.3 mg/kg, i.p.): 7.5 s
- Delta (s), difference between exploration times for new and familiar object (Wistar rat [2]; dose 0.3 mg/kg, p.o.): 9.95 s

Compound: CC1=CC(=O)CC(c2ccc(Cl)cc2)N1 (racemic) [Example 24, (±)-2-(4-Chlorophenyl)-6-methyl-2,3-dihydro-4(1H)-pyridinone]
- T2 − T1 (s), difference between the recognition times of the 2 encounters (Wistar rat [1]): -32 s
- Delta (s), difference between exploration times for new and familiar object (Wistar rat [2]; dose 3 mg/kg, i.p.): 7.55 s

Compound: CC1=CC(=O)CC(c2ccc(Cl)cc2)CN1 (racemic) [Example 25, (±)-6-(4-Chlorophenyl)-2-methyl-1,5,6,7-tetrahydro-4H-azepin-4-one]
- Inhibition (%) of the number of abdominal cramps (NMRI mouse; dose 20 mg/kg): 69%

Compound: CC1=CC(=O)CC(c2ccc(Cl)c(Cl)c2)N1 (racemic) [Example 26, (±)-2-(3,4-Dichlorophenyl)-6-methyl-2,3-dihydro-4(1H)-pyridinone]
- Inhibition (%) of the number of abdominal cramps (NMRI mouse; dose 10 mg/kg): 55%

Compound: COc1cccc(C2CC(=O)C=C(C)N2)c1 (racemic) [Example 27, (±)-2-(3-Methoxyphenyl)-6-methyl-2,3-dihydro-4(1H)-pyridinone]
- Delta (s), difference between exploration times for new and familiar object (Wistar rat [2]; dose 3 mg/kg, i.p.): 6.68 s

Compound: CC1=CC(=O)CC(c2ccsc2)N1 (racemic) [Example 30, (±)-6-Methyl-2-(3-thienyl)-2,3-dihydro-4(1H)-pyridinone]
- Inhibition (%) of the number of abdominal cramps (NMRI mouse; dose 20 mg/kg): 51%

Compound: CC1=CC(=O)CC(c2cccnc2)N1 (racemic) [Example 36, (±)-6-Methyl-2-(3-pyridyl)-2,3-dihydro-4(1H)-pyridinone]
- T2 − T1 (s), difference between the recognition times of the 2 encounters (Wistar rat [1]): -36 s

Compound: C[C@@H]1C[C@H](O)C[C@H](c2ccccc2)N1.Cl (relative stereo) [Example 21, (2R*,4S*,6R*)-2-Phenyl-6-methyl-4-piperidinol hydrochloride]
- T2 − T1 (s), difference between the recognition times of the 2 encounters (Wistar rat [1]): -33 s

Compound: C[C@@H]1C[C@H](O)C[C@H](c2ccccc2)N1.O=C(O)C(=O)O (relative stereo) [Example 22, (2R*,4S*,6R*)-2-Phenyl-6-methyl-4-piperidinol oxalate]
- Delta (s), difference between exploration times for new and familiar object (Wistar rat [2]; dose 0.3 mg/kg, i.p.): 9.98 s
- Delta (s), difference between exploration times for new and familiar object (Wistar rat [2]; dose 3 mg/kg, p.o.): 5.93 s

Compound: CC1=CC(=O)C[C@@H](c2cccc(Cl)c2)N1 [Example 18, (2S)-2-(3-Chlorophenyl)-6-methyl-2,3-dihydro-4-(1H)-pyridinone]
- Delta (s), difference between exploration times for new and familiar object (Wistar rat [2]; dose 1 mg/kg, p.o.): 6.2 s
